Laboratory results taken from US6861445B2, “3-Substituted-3-(substitutedsulfonyl or sulfanyl)pyrrolidine-2,5-diones useful for inhibition of farnesyl-protein transferase” (Wyeth Holdings Corporation, priority 2001, dated 2005).

Assays:
[1] = molecular target: FPTase (H-Ras substrate) (Homo sapiens, UniProt P49354+P49356); experiment: in vitro FTase Inhibition Assay, H-Ras as substrate for farnesylation; type: biochemical; details: H-Ras used as substrate for farnesylation
Experimental: (§1) The ability of the compounds of this invention to inhibit FPTase was evaluated in the standard pharmacological in vitro test procedures described below.
(§2) Enzyme test procedure: FPTase inhibition in vitro assay was performed according to James, G. L., Brown, M. S., and Goldstein, J. L., Methods in Enzymology, 1995, 255, 38-46; and Garcia, M. A., et al., J. Biol. Chem., 1993, 268, 18415-18420.
(§3) • Materials—Purified FPTase (Moomaw, J. F. and Casey, P. J., J. Biol. Chem., 1992, 267, 17438-17443), purified His6-Ras, inhibitor compounds at 10 mg/ml or 10 mM in 100% DMSO, ^3H-FPP (50,000 dpm/pmol) Amersham, TCA/SDS (6%/2%), TCA (6%), Glass fiber filters (0.22-0.45 m), vacuum manifold or 96 well filtration plates. • Methods—1. Dilute FPTase inhibitors from stock solutions to 2.5× in 2.5% DMSO, 10 mM DTT, 0.5% octyl-B-glucoside. 2. Solution #1 is added to FPTase reaction in a volume of […]. 3. Standard reaction mix, […], contains 50 mM Tris (7.5),[…], 3 mM MgCl2, 20 mM KCl, 5 mM DTT, 0.2% octyl-B-glucoside, 1% DMSO, […] His6-Ras, 10 ng FPTase, and various concentrations of FPTase inhibitors. 4. Incubate for 30-90 min at 25° C. 5. […] Add scintillant to filters, measure ^3H-FPP incorporation into Ras protein. • Analysis of Results—Percent inhibition by test compounds is determined by the following: […]. […]

[2] = molecular target: FPTase (K-Ras substrate) (Homo sapiens, UniProt P49354+P49356); experiment: in vitro FTase Inhibition Assay, K-Ras as substrate for farnesylation; type: biochemical; details: K-Ras used as substrate for farnesylation
Experimental: as §1, §2, §3

SMILES	IC50 [1] [µM]	IC50 [2] [µM]	melting point [°C]
COc1ccc(S(=O)(=O)C2(CCCC#Cc3ccc(Cl)cc3)CC(=O)NC2=O)cc1 (stereo not shown) [3-[5-(4-Chlorophenyl)pent-4-ynyl]-3-(4-methoxybenzenesulfonyl)-pyrrolidine-2,5-dione]	0.14	> 1	160 to 162
Cc1ccc(S(=O)(=O)C2(CC#Cc3ccc(Cl)cc3)CC(=O)NC2=O)cc1 (stereo not shown) [3-[-3-(4-Chlorophenyl)prop-2-ynyl]-3-(toluene-4-sulfonyl)pyrrolidine-2,5-dione]	6.5	–	–
